Measured values from EP3494850B1, “WET WIPE WITH HYDROXYACETOPHENON” (Dr. Schumacher GmbH, priority 2017, dated 2019).

Tested on: Haut der Probanden
Assay: Patch test for skin tolerance on 50 subjects
Type: in vivo
Conditions: 48 h under occlusion on the back, read at 48 h and 72 h (erythema, scaling, fissures)
From the text: Zur Prüfung der Hautverträglichkeit des Tränkungsmittels, mit dem erfindungsgemäße Feuchttücher getränkt sind, wird ein Patch-Test an 50 Probanden durchgeführt. Mit einem Patch-Test können dermatologische und kosmetische Produkte auf ihr irritatives Potential untersucht werden. Bei den 50 ausgewählten Personen im Alter zwischen 18 und 69 Jahren handelte es sich um 28 Hautgesunde, 2 Atopiker, 2 Allergiker und 18 Personen mit empfindlicher Haut.
Für den Patch-Test wurde eine gemäß der in Tabelle 1 (Beispiel 1) angegebenen Rahmenrezeptur zusammengesetzte O/W-Emulsion für 48 Stunden unverdünnt auf den Rücken der Probanden mit Hilfe von quadratischen Kunststoffkammern (allergEAZE® clear Patch Test Chambers; SmartPractice®, Phoenix, AZ) unter Okklusion appliziert. Als Positivkontrolle diente der Modellschadstoff Natriumlaurylsulfat (SDS) in einer Konzentration von 1 % in Wasser. Als negative Kontrolle diente Wasser.
Die Bewertung der Testreaktionen erfolgte nach 48 Stunden (30 Minuten nach der Entfernung der Okklusion) sowie nach 72 Stunden, wobei die Haut der Probanden jeweils hinsichtlich Erythem, Schuppung und Fissuren untersucht wurde.

With `CCCCCCCCCCCCOS(=O)(=O)O` [SDS, Natriumlaurylsulfat] the “Testpersonen mit Reaktion im Patch-Test” value was 14 Testpersonen.
